{"source": "patent US20080194614A1", "about": "“Combination of Organic Compounds” (priority 2005, published 2008)", "key": {"[1]": {"assay": "4-week toxicity study in monkeys", "format": "in vivo", "description": "(§1) Rapamycin or derivatives thereof are well tolerated at dosages required for use in accordance with the present invention. For example, the NTEL for Compound A in a 4-week toxicity study is 0.5 mg/kg/day in rats and 1.5 mg/kg/day in monkeys."}, "[2]": {"assay": "4-week toxicity study in rats", "format": "in vivo", "description": "as §1"}}, "data": [{"smiles": "CO[C@H]1C[C@@H]2CC[C@@H](C)[C@@](O)(O2)C(=O)C(=O)N2CCCC[C@H]2C(=O)O[C@H]([C@H](C)C[C@@H]2CC[C@@H](OCCO)[C@H](OC)C2)CC(=O)[C@H](C)/C=C(\\C)[C@@H](O)[C@@H](OC)C(=O)[C@H](C)C[C@H](C)/C=C/C=C/C=C/1C", "note": "[Compound A, 40-0-(2-hydroxyethyl)-rapamycin]", "values": [{"measurement": "NTEL", "setting": "[1]", "result": 1.5, "unit": "mg/kg/day"}, {"measurement": "NTEL", "setting": "[2]", "result": 0.5, "unit": "mg/kg/day"}]}]}
